Laboratory results from US20120295907A1, “INSECTICIDAL COMPOUNDS” (SYNGENTA CROP PROTECTION, LLC, priority 2009, published 2012).

Experiments:
Type in all cases: in vivo
Myzus persicae = Myzus persicae (Green Peach Aphid) sunflower leaf disc spray test; conditions: foliar, 144 h, 200 ppm spray on sunflower leaf discs, aphid population of mixed ages, 6 DAT, mortality
Plutella xylostella = Plutella xylostella (Diamond Back Moth) artificial diet MTP test; conditions: 144 h, 200 ppm (concentration in well 18 ppm), L2 larvae, 6 days, larval mortality, growth regulation
Diabrotica balteata = Diabrotica balteata (Corn Root Worm) artificial diet MTP test; conditions: 120 h, 200 ppm (concentration in well 18 ppm), L2 larvae, 5 days, larval mortality, growth regulation
Spodoptera littoralis = Spodoptera littoralis (Egyptian Cotton Leafworm) cotton leaf disc spray test; conditions: foliar, 72 h, 200 ppm spray on cotton leaf discs, L1 larvae, mortality, feeding behavior, growth regulation 3 DAT
Thrips tabaci = Thrips tabaci (Onion Thrips) sunflower leaf disc spray test; conditions: foliar, 168 h, 200 ppm spray on sunflower leaf discs, population of mixed ages, 7 days, mortality
Heliothis virescens = Heliothis virescens (Tobacco Budworm) egg test on artificial diet; conditions: 96 h, 200 ppm (concentration in well 18 ppm), eggs 0-24 h old on artificial diet, 4 days, egg mortality, larval mortality, growth regulation
Tetranychus urticae = Tetranychus urticae (Two-Spotted Spider Mite) bean leaf disc spray test; conditions: foliar, 192 h, 200 ppm spray on bean leaf discs, mite populations of mixed ages, 8 days, egg, larval and adult mortality, read-out: control of Tetranychus urticae

Measured: pest or weed control at 200 ppm

COc1c(NC(=O)c2cccnc2)cccc1C(=O)Nc1c(Cl)cc(C(F)(C(F)(F)F)C(F)(F)C(F)(F)F)cc1Br (stereo not drawn) [B37]
not listed: Heliothis virescens | Tetranychus urticae
≥ 80%: all other assays above

COc1c(NC(=O)c2ccsc2)cccc1C(=O)Nc1c(Cl)cc(C(F)(C(F)(F)F)C(F)(F)C(F)(F)F)cc1Br (stereo not drawn) [B124]
not listed: Diabrotica balteata | Tetranychus urticae
≥ 80%: all other assays above

COc1c(NC(=O)c2cccc([N+](=O)[O-])c2Cl)cccc1C(=O)Nc1c(Cl)cc(C(F)(C(F)(F)F)C(F)(F)C(F)(F)F)cc1Br (stereo not drawn) [B183]
not listed: Myzus persicae
≥ 80%: all other assays above

COc1c(NC(=O)c2cccc(Cl)c2Cl)cccc1C(=O)Nc1c(Cl)cc(C(F)(C(F)(F)F)C(F)(F)C(F)(F)F)cc1Br (stereo not drawn) [B184]
not listed: Myzus persicae
≥ 80%: all other assays above

COc1c(NC(=O)c2ccc([N+](=O)[O-])c(F)c2)cccc1C(=O)Nc1c(Cl)cc(C(F)(C(F)(F)F)C(F)(F)C(F)(F)F)cc1Br (stereo not drawn) [B192]
not listed: Myzus persicae
≥ 80%: all other assays above

COc1c(NC(=O)c2ccc(C#N)cc2C)cccc1C(=O)Nc1c(Cl)cc(C(F)(C(F)(F)F)C(F)(F)C(F)(F)F)cc1Cl (stereo not drawn) [C2, N-[2,6-dichloro-4-(1,2,2,3,3,3-hexafluoro-1-trifluoromethylpropyl)phenyl]-3-(4-cyano-2-methylbenzoylamino)-2-methoxybenzamide]
not listed: Myzus persicae
≥ 80%: all other assays above

COc1c(NC(=O)c2ccc([N+](=O)[O-])cc2)cccc1C(=O)Nc1c(Cl)cc(C(F)(C(F)(F)F)C(F)(F)C(F)(F)F)cc1Cl (stereo not drawn) [C7]
not listed: Myzus persicae
≥ 80%: all other assays above

COc1c(NC(=O)c2ccc(F)cc2C)cccc1C(=O)Nc1c(Cl)cc(C(F)(C(F)(F)F)C(F)(F)C(F)(F)F)cc1Cl (stereo not drawn) [C9]
not listed: Myzus persicae
≥ 80%: all other assays above

COc1c(NC(=O)c2ccc([N+](=O)[O-])cc2Cl)cccc1C(=O)Nc1c(Cl)cc(C(F)(C(F)(F)F)C(F)(F)C(F)(F)F)cc1Cl (stereo not drawn) [C11]
not listed: Myzus persicae
≥ 80%: all other assays above

COc1c(NC(=O)c2ccc(OC(F)(F)F)cc2)cccc1C(=O)Nc1c(Cl)cc(C(F)(C(F)(F)F)C(F)(F)C(F)(F)F)cc1Cl (stereo not drawn) [C13]
not listed: Myzus persicae
≥ 80%: all other assays above

COc1c(NC(=O)c2ccccc2)cccc1C(=O)Nc1c(Cl)cc(C(F)(C(F)(F)F)C(F)(F)C(F)(F)F)cc1Cl (stereo not drawn) [C18]
not listed: Diabrotica balteata | Tetranychus urticae
≥ 80%: all other assays above

COc1c(NC(=O)c2ccccc2C(F)(F)F)cccc1C(=O)Nc1c(Cl)cc(C(F)(C(F)(F)F)C(F)(F)C(F)(F)F)cc1Cl (stereo not drawn) [C20]
not listed: Myzus persicae
≥ 80%: all other assays above

COc1c(NC(=O)c2snnc2C)cccc1C(=O)Nc1c(Cl)cc(C(F)(C(F)(F)F)C(F)(F)C(F)(F)F)cc1Cl (stereo not drawn) [C21]
not listed: Myzus persicae
≥ 80%: all other assays above

COc1c(NC(=O)c2cccc(F)c2F)cccc1C(=O)Nc1c(Cl)cc(C(F)(C(F)(F)F)C(F)(F)C(F)(F)F)cc1Cl (stereo not drawn) [C22]
not listed: Myzus persicae
≥ 80%: all other assays above

COc1c(NC(=O)c2ccc(F)cc2F)cccc1C(=O)Nc1c(Cl)cc(C(F)(C(F)(F)F)C(F)(F)C(F)(F)F)cc1Cl (stereo not drawn) [C23]
not listed: Myzus persicae
≥ 80%: all other assays above

COc1c(NC(=O)c2ccc(F)cc2C)cccc1C(=O)Nc1c(Cl)cc(C(F)(C(F)(F)F)C(F)(F)F)cc1Cl [E7]
not listed: Myzus persicae
≥ 80%: all other assays above

COc1c(NC(=O)c2ccc(F)cc2Cl)cccc1C(=O)Nc1c(Cl)cc(C(F)(C(F)(F)F)C(F)(F)F)cc1Cl [E19]
not listed: Myzus persicae
≥ 80%: all other assays above

COc1c(NC(=O)c2snnc2C)cccc1C(=O)Nc1c(Cl)cc(C(F)(C(F)(F)F)C(F)(F)F)cc1Cl [E20]
not listed: Myzus persicae
≥ 80%: all other assays above

COc1c(NC(=O)c2cccc(C#N)c2)cccc1C(=O)Nc1c(C)cc(C(F)(C(F)(F)F)C(F)(F)C(F)(F)F)cc1C (stereo not drawn) [F21]
not listed: Myzus persicae
≥ 80%: all other assays above

COc1c(NC(=O)c2ccc([N+](=O)[O-])cc2)cccc1C(=O)Nc1c(C)cc(C(F)(C(F)(F)F)C(F)(F)C(F)(F)F)cc1C (stereo not drawn) [F29]
not listed: Myzus persicae
≥ 80%: all other assays above

COCc1cc(C(F)(C(F)(F)F)C(F)(F)C(F)(F)F)cc(Cl)c1NC(=O)c1cccc(NC(=O)c2ccc(C#N)cc2C)c1OC (stereo not drawn) [H1]
≥ 80%: Myzus persicae | Plutella xylostella | Heliothis virescens

COc1c(NC(=O)c2c(F)cc(F)cc2F)cccc1C(=O)Nc1c(C)cc(C(F)(C(F)(F)F)C(F)(F)F)cc1C [K1]
not listed: Myzus persicae
≥ 80%: all other assays above
